# Source: ChEMBL document CHEMBL1201862, “PubChem BioAssay data set” (2004)
#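 Five compound concentrations were applied to cells in 96-well plates for 48 hours; endpoints were derived by simple linear interpolation of the resulting dose-response curve. GI50 = concentration required for 50% inhibition of growth.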 Activity calls are given as the source filed them. No stated cut-off is given here; in the data, active = GI50 up to about 1.1 µM and inactive = higher.
# Assays:
# Experiment in all cases: DTP human tumour cell line panel, 48 h
# UACC-62 = tested on: UACC-62
# PC-3 = tested on: PC-3
# UACC-257 = tested on: UACC-257
# HCT-15 = tested on: HCT-15
# MDA-MB-231 = tested on: MDA-MB-231
# RPMI-8226 = tested on: RPMI-8226
# COLO 205 = tested on: COLO 205
# OVCAR-4 = tested on: OVCAR-4
# HCT-116 = tested on: HCT-116
# HOP-62 = tested on: HOP-62
# NCI-H460 = tested on: NCI-H460
# HT-29 = tested on: HT-29
# EKVX = tested on: EKVX
# OVCAR-8 = tested on: OVCAR-8
# A549 = tested on: A549
# Malme-3M = tested on: Malme-3M
# NCI-H23 = tested on: NCI-H23
# SNB-19 = tested on: SNB-19
# SF-539 = tested on: SF-539
# HL-60 = tested on: HL-60
SMILES,GI50 (UACC-62),GI50 (PC-3),GI50 (UACC-257),GI50 (HCT-15) [µM],GI50 (MDA-MB-231),GI50 (RPMI-8226),GI50 (COLO 205),GI50 (OVCAR-4),GI50 (HCT-116),GI50 (HOP-62),GI50 (NCI-H460),GI50 (HT-29),GI50 (EKVX),GI50 (OVCAR-8),GI50 (A549),GI50 (Malme-3M),GI50 (NCI-H23),GI50 (SNB-19),GI50 (SF-539),GI50 (HL-60)
c1ccc(C(=NCCC2CNc3ccccc32)c2ccccc2)cc1 (configuration not stated),> 100 µM (inactive),> 100 µM (inactive),> 100 µM (inactive),> 100,> 100 µM (inactive),> 100 µM (inactive),> 100 µM (inactive),> 100 µM (inactive),> 100 µM (inactive),> 100 µM (inactive),> 100 µM (inactive),> 100 µM (inactive),> 100 µM (inactive),> 100 µM (inactive),> 100 µM (inactive),> 100 µM (inactive),> 100 µM (inactive),> 100 µM (inactive),,
COc1cccc2c1C(=O)c1c(O)c3c(c(O)c1C2=O)C[C@](O)(C(=O)CO)CC3OC1CC(N)C(OC2CCCCO2)C(C)O1 (some centres not stated),0.208 µM (active),,0.995 µM (active),0.47,,0.112 µM (active),0.329 µM (active),0.659 µM (active),0.0659 µM (active),0.212 µM (active),< 0.01 µM (active),0.229 µM (active),0.916 µM (active),0.267 µM (active),< 0.01 µM (active),0.0752 µM (active),0.051 µM (active),0.0948 µM (active),0.123 µM (active),< 0.01 µM (active)
CCC1=CC2CN3CCc4c([nH]c5ccccc45)C(C(=O)OC)(C2)C13 (configuration not stated),37.8 µM (inactive),,54.8 µM (inactive),44.2,,18.5 µM (inactive),39.4 µM (inactive),37.2 µM (inactive),35.6 µM (inactive),43.6 µM (inactive),52.6 µM (inactive),22.7 µM (inactive),36.7 µM (inactive),11 µM (inactive),47.6 µM (inactive),50.4 µM (inactive),45.6 µM (inactive),46 µM (inactive),50.9 µM (inactive),36.7 µM (inactive)
NC(CCCNc1ccc(O)cc1)C(=O)O (configuration not stated),18.5 µM (inactive),,27.8 µM (inactive),30.1,,24.4 µM (inactive),> 54.2 µM (inactive),17.6 µM (inactive),18.2 µM (inactive),> 80.2 µM (inactive),> 59.6 µM (inactive),41.7 µM (inactive),38.8 µM (inactive),33.7 µM (inactive),> 94.2 µM (inactive),> 56.1 µM (inactive),97.9 µM (inactive),> 100 µM (inactive),35.2 µM (inactive),19.8 µM (inactive)
Cc1cn(C2CC(O)C(Cn3nncc3Cn3cnc4c(N)ncnc43)O2)c(=O)[nH]c1=O (configuration not stated),> 100 µM (inactive),> 100 µM (inactive),> 100 µM (inactive),> 100,,> 100 µM (inactive),> 100 µM (inactive),> 100 µM (inactive),> 100 µM (inactive),> 100 µM (inactive),,,> 100 µM (inactive),26.4 µM (inactive),> 100 µM (inactive),> 100 µM (inactive),> 100 µM (inactive),> 100 µM (inactive),> 100 µM (inactive),> 100 µM (inactive)
CN1CCCS/C1=C1/SC(=S)N(c2ccccc2)C1=O,> 100 µM (inactive),,> 100 µM (inactive),> 100,,> 100 µM (inactive),> 100 µM (inactive),> 100 µM (inactive),> 100 µM (inactive),> 100 µM (inactive),> 100 µM (inactive),> 100 µM (inactive),> 100 µM (inactive),> 100 µM (inactive),> 100 µM (inactive),> 100 µM (inactive),> 100 µM (inactive),> 100 µM (inactive),> 100 µM (inactive),> 100 µM (inactive)
